Results as given in the supplement of paper PMC8372320.

Test: photocatalytic hydrogen evolution rate (per 5 mg catalyst); higher = more photocatalytic H2 evolution; extreme values may be limits of the assay
Conditions: catalyst mass (mg): 5; Pt cocatalyst (wt%): 3; sacrificial medium: triethylamine/methanol/water 1:1:1
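Also: aromatic molecules in triethylamine/methanol/water with Pt photoreduced in situ, irradiated 3 h under a 1 sun AM 1.5G solar simulator (350–1000 nm), H2 quantified by headspace gas chromatography; listed molecule itself used as the photocatalyst at 5 mg per vial.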

| photocatalytic hydrogen evolution rate [µmol/h] | SMILES |
| --- | --- |
| 0.245 | Cc1cccc(N(c2ccc(C=O)cc2)c2cccc(C)c2)c1 |
| 0.874 | O=C1Nc2c(Br)cc(Br)cc2C1=O |
| 1.18 | COC(OC)(C(=O)c1ccccc1)c1ccccc1 |
| 0.0527 | N#Cc1c(F)cc(F)cc1F |
| 0.00607 | CCOC(=O)c1cncc(C(=O)OCC)c1 |
| 0.136 | c1ccc2c(c1)Cc1cc3c(cc1-2)Cc1ccccc1-3 |
| 0 | c1ccc(N(c2ccccc2)c2ccc(N(c3ccccc3)c3ccccc3)cc2)cc1 |
| 0 | O=C1OC(=O)c2ccc3c4ccc5c6c(ccc(c7ccc1c2c73)c64)C(=O)OC5=O |
| 0 | Nc1ccc(-c2nc(-c3ccc(N)cc3)nc(-c3ccc(N)cc3)n2)cc1 |
| 0 | Nc1ccc(C(c2ccc(N)cc2)(c2ccc(N)cc2)c2ccc(N)cc2)cc1 |
| 0 | Nc1ccc(N)c2c1C(=O)c1c(N)ccc(N)c1C2=O |
| 0 | N#Cc1cc(C#N)ncn1 |
| 0 | Oc1c(Br)c(O)c(Br)c(O)c1Br |
| 3.19 | O=Cc1ccc(-c2cc(-c3ccc(C=O)cc3)c3ccc4c(-c5ccc(C=O)cc5)cc(-c5ccc(C=O)cc5)c5ccc2c3c54)cc1 |
| 0 | Brc1cc2cc3sc(Br)cc3cc2s1 |
| 0.478 | c1cnc2c(c1)ccc1cccnc12 |
| 0.00212 | O=C(O)c1ccc(-c2cc(-c3ccc(C(=O)O)cc3)cc(-c3ccc(C(=O)O)cc3)c2)cc1 |
| 0 | N#Cc1ccc(-c2ccccc2C#N)cc1 |
| 1.44 | Brc1c2ccccc2c(-c2c3ccccc3c(Br)c3ccccc23)c2ccccc12 |
| 0 | O=c1[nH]cc(Br)nc1Br |
| 0 | COC(=O)c1ccc(C#N)cc1 |
| 0 | Nc1c(Br)cc2[nH]cnc2c1Br |

| photocatalytic hydrogen evolution rate [µmol/h] | SMILES |
| --- | --- |
| 0.023 | COC(=O)c1cccc(C(=O)OC)c1 |
| 0 | N#CC(C#N)=c1c(F)c(F)c(=C(C#N)C#N)c(F)c1F |
| 3.14 | O=Cc1cccc(-c2ccccc2)c1 |
| 0 | N#CCc1ccc(Cl)nc1 |
| 0.0714 | N#Cc1c2ccccc2c(C#N)c2ccccc12 |
| 0 | O=C1c2cccc([N+](=O)[O-])c2C(=O)c2c1cccc2[N+](=O)[O-] |
| 0 | O=C1N=C(c2cccs2)c2c(O)[nH]c(-c3cccs3)c21 |
| 0 | N#Cc1ccc(Br)c(F)c1 |
| 0.927 | O=Cc1ccc(-c2ccc(C=O)cn2)nc1 |
| 0 | c1ccc2c(c1)[nH]c1ccccc12 |
| 0.155 | Oc1cc2c3cc(O)c(O)cc3c3cc(O)c(O)cc3c2cc1O |
| 0 | COc1cc(C=O)cc(OC)c1O |
| 0 | c1ccc(-c2ccc(-c3ccc(-c4ccccc4)cc3)cc2)cc1 |
| 0 | C=Cc1ccccc1 |
| 0.401 | N#Cc1cc2ccccc2cc1C#N |
| 0 | c1csc(-c2ccc(N(c3ccc(-c4cccs4)cc3)c3ccc(-c4cccs4)cc3)cc2)c1 |
| 0 | Brc1ccc(Br)nc1 |
| 0 | O=Cc1cccc(O)c1O |
| 0.229 | CC(=O)c1ccc(N)cc1 |
| 0 | O=Cc1c(O)cc(O)cc1O |
| 0 | N#Cc1ccncc1Br |
| 0.0342 | CCCCCCCCC1(CCCCCCCC)c2cc(B3OC(C)(C)C(C)(C)O3)ccc2-c2ccc(B3OC(C)(C)C(C)(C)O3)cc21 |

| photocatalytic hydrogen evolution rate [µmol/h] | SMILES |
| --- | --- |
| 0 | C(#Cc1ccccc1)c1ccccc1 |
| 0 | CCOC(=O)c1ccc(C(=O)OCC)cc1 |
| 7.48 | O=c1c2ccccc2oc2ccccc12 |
| 0.0382 | O=Cc1ccc(O)c(F)c1 |
| 1.98 | CC(=O)c1cc(C(C)=O)cc(C(C)=O)c1 |
| 1.91 | COc1ccc2c3c(cccc13)C(=O)N(C)C2=O |
| 0.0242 | Brc1ccc(-c2ccc(Br)cn2)nc1 |
| 0.101 | O=C1CCc2ccccc21 |
| 2.97 | O=Cc1c2ccccc2c(C=O)c2ccccc12 |
| 0.0237 | CCOC(=O)c1ccc(C(=O)OCC)nc1 |
| 25.2 | O=C1OC2(c3cc(Cl)c(O)cc3Oc3cc(O)c(Cl)cc32)c2ccccc21 |
| 0 | O=Cc1ccc(C=O)c([N+](=O)[O-])c1 |
| 0 | COC(=O)c1cc(Br)oc1Br |
| 0.0666 | Nc1nc(Br)cnc1Br |
| 2.76 | COc1ccc(B(O)O)cc1C=O |
| 0 | O=C1C=CC(=O)N1c1ccccc1 |
| 0.0661 | O=Cc1ccc(O)c(Cl)c1 |
| 0 | O=C1c2c(O)cccc2Cc2cccc(O)c21 |
| 0.0172 | Cc1cc(C=O)ccc1O |
| 0 | CNc1ccc(C#N)cc1 |
| 0 | O=c1c2ccccc2c(=O)c2cc3c(=O)c4ccccc4c(=O)c3cc12 |
| 3.44 | Cc1ccc(C(=O)c2ccccc2)cc1 |

| photocatalytic hydrogen evolution rate [µmol/h] | SMILES |
| --- | --- |
| 0 | Nc1c(Br)ccc(Br)c1N |
| 0 | N#Cc1ccc(C#N)cc1 |
| 0 | Nc1nc2ccccc2[nH]1 |
| 0 | c1ccc(N=C(Nc2ccccc2)Nc2ccccc2)cc1 |
| 0 | N#Cc1ccc(CCc2ccc(C#N)cc2)cc1 |
| 5.78 | COc1cc(C=O)cc(OC)c1 |
| 0 | c1ccc2c(c1)c1ccccc1n2-c1ccc(N(c2ccc(-n3c4ccccc4c4ccccc43)cc2)c2ccc(-n3c4ccccc4c4ccccc43)cc2)cc1 |
| 5.25 | O=Cc1ccc(-c2ccc(F)cc2)cc1 |
| 0.736 | O=C(C(=O)c1ccccc1)c1ccccc1 |
| 0.059 | Nc1ccc(C(=O)O)cc1 |
| 0.214 | O=C1c2cc(Br)ccc2-c2ccc(Br)cc21 |
| 1.09 | N#Cc1cccc(-c2cccc(C=O)c2)c1 |
| 1.25 | CCn1c2ccc(Br)cc2c2cc(Br)ccc21 |
| 0 | c1ccc(P(c2ccccc2)c2ccc3ccccc3c2-c2c(P(c3ccccc3)c3ccccc3)ccc3ccccc23)cc1 |
| 0.0198 | COC(=O)c1cc(C(=O)OC)cc(C(=O)OC)c1 |
| 0.0364 | O=Cc1cncnc1 |
| 0 | c1ccc(-c2ccc(-c3ccc(-c4ccc(-c5ccc(-c6ccccc6)cc5)cc4)cc3)cc2)cc1 |
| 0.055 | COc1ccc(Nc2ccc(OC)cc2)cc1 |
| 0.0679 | Brc1ccc(C(c2ccc(Br)cc2)(c2ccc(Br)cc2)c2ccc(Br)cc2)cc1 |
| 8.89 | O=Cc1ccc(-c2ccc(C=O)cc2)cc1 |
| 0.0555 | CCCc1ccc(C(=O)CC#N)cc1 |
| 0 | Nc1c(Br)cnc(Br)c1N |

| photocatalytic hydrogen evolution rate [µmol/h] | SMILES |
| --- | --- |
| 0.0311 | Brc1ccc(-c2nc(-c3ccc(Br)cc3)nc(-c3ccc(Br)cc3)n2)cc1 |
| 0 | NNC(=O)COc1ccc(Br)cc1Br |
| 0 | N#Cc1ccc(Br)cc1 |
| 0 | Oc1ccc2c(c1)Oc1cc(O)ccc1C21c2ccccc2-c2ccccc21 |
| 0.491 | O=Cc1ccccc1C=O |
| 0.053 | OB(O)c1ccc(B(O)O)cc1 |
| 0.0301 | N#Cc1cccc(-c2cccc(C#N)n2)n1 |
| 0 | C#Cc1ccc(C#C)cc1 |
| 0.107 | O=Cc1cc(Br)nc(Br)c1 |
| 0 | O=C1c2ccccc2C(=O)c2c(Cl)cccc21 |
| 0 | c1ccc2c(c1)-c1ccccc1C21c2ccccc2-c2ccccc21 |
| 0 | Brc1ccc2c(c1)[nH]c1cc(Br)ccc12 |
| 0.0133 | Cc1cc(C#N)ccc1N |
| 0.0582 | N#Cc1cc(F)c(F)cc1F |
| 0 | N#Cc1c(F)c(F)c(Br)c(F)c1F |
| 4.24 | N#Cc1c(F)c(F)c(F)c(F)c1C#N |
| 0 | OB(O)c1ccc(Br)nc1 |
| 0 | N#Cc1c(O)[nH]c(=O)c(C#N)c1-c1ccccc1 |
| 0 | Brc1cncc(Br)c1 |
| 0.0522 | O=C(O)c1cc(C(=O)O)cc(-c2ccc(-c3cc(C(=O)O)cc(C(=O)O)c3)cc2)c1 |
| 0.057 | c1ccc2c(c1)ccc1ccccc12 |
| 0 | OC(c1ccccc1)(c1ccccc1)c1ccccc1 |

| SMILES | photocatalytic hydrogen evolution rate [µmol/h] |
| --- | --- |
| Nc1ccc(N)cc1 | 0 |
| N#Cc1ccc(C=O)cc1 | 0.136 |
| COC(=O)c1ccc(-c2ccc(C(=O)OC)cc2)cc1 | 0.00435 |
| Cc1cc(-c2cc(C)c(N)c(C)c2)cc(C)c1N | 0 |
| O=C(O)Cc1ccccc1 | 0.0603 |
| c1ccc(-c2ccccc2-c2ccccc2)cc1 | 0 |
| BrCc1cc(Br)cc(Br)c1 | 0 |
| BrCc1ccc(CBr)cc1 | 0 |
| N#Cc1cccc(C#N)c1 | 0 |
| CN1CCN(c2ccc(C=O)cc2)CC1 | 0.409 |
| Nc1ccc(-c2ccc(N)c(O)c2)cc1O | 0.104 |
| N#CCc1ccc(CC#N)cc1 | 0 |
